These results are taken from patent US9394285B2 (Pfizer Inc., priority 2013, dated 2016).

The target in data set [1] is human AMPK (full-length γ1, β1 and α1 subunits) (Homo sapiens (Human), UniProt Q13131+Q9Y478). The experiment in a line: AMPK in vitro biochemical assay (33P-based, SAMS peptide, PP2A dephosphorylation). To be noted: for EC50: activation of phosphorylated AMPK, 33P-ATP, SAMS peptide, PP2A treatment, 4-parameter fit; for Emax: read-out: Maximum. In short, it runs like this:
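Phosphorylated full-length α1β1γ1 AMPK (E. coli-expressed, His-purified, gel-filtered) preincubated 15 min RT with compound in HEPES pH 7.5, 10 mM MgCl2 buffer, then PP2A added to dephosphorylate pThr172.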

The mark [2] stands for this setting: counts as % of positive control wells (enzyme, allosteric activator or AMP, PP2A and substrate).

“And” between values parts separate entries of the source, which are not always exact repeats. Equal entries are not always repeated.

Sequence of human AMPK (full-length γ1, β1 and α1 subunits) (Q13131 whole entry): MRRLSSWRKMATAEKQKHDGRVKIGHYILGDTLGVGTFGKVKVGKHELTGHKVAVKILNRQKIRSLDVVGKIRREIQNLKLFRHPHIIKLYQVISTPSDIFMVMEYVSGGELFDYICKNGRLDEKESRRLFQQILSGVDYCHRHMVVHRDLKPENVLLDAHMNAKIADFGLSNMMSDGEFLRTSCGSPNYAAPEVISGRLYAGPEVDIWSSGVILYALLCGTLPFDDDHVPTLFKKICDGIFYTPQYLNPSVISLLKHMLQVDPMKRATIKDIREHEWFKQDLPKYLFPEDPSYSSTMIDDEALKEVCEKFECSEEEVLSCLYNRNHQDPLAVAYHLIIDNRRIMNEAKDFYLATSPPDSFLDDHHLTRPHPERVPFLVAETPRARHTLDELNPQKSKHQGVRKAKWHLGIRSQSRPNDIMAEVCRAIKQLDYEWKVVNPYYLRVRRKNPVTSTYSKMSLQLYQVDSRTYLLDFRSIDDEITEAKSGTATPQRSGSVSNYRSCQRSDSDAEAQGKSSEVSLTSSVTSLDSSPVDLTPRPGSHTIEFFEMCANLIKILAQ
Sequence of human AMPK (full-length γ1, β1 and α1 subunits) (Q9Y478 whole entry): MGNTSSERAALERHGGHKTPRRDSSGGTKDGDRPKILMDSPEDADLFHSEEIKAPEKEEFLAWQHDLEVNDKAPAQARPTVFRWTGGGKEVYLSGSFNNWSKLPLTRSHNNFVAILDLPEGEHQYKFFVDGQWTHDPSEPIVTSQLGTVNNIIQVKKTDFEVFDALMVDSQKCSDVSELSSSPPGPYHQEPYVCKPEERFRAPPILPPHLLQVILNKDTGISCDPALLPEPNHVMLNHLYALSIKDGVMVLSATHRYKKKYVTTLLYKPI
Sequence of human AMPK (full-length γ1, β1 and α1 subunits) (P54619 whole entry partner): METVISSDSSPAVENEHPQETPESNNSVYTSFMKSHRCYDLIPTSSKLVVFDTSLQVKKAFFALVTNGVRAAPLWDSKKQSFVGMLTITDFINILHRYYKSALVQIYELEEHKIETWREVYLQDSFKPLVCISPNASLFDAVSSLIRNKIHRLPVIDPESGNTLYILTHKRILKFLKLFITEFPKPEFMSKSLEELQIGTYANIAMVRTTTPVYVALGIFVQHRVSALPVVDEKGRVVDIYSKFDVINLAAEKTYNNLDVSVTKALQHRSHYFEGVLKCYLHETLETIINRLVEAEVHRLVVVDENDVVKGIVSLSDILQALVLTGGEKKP

A word on the melting point: it is the temperature of the solid-liquid transition. In general, EC50 refers to the midpoint of the concentration-response curve. Higher therefore signals weaker potency. On to `N#Cc1cc2[nH]cc(C(=O)O)c2cc1-c1ccc(C2(CO)CC2)cc1` [Example 23, 6-cyano-5-{4-[1-(hydroxymethyl)cyclopropyl]phenyl}-1H-indole-3-carboxylic acid], for which the melting point lay within 270.9 to 271.6 °C. For the same compound, a half-maximal effect in data set [1] (EC50) was put at 16 nM. Moreover, in data set [1] (setting [2]), the Emax was 88%.
In the case of `O=C(O)c1c[nH]c2cc(Cl)c(-c3ccc(OCCCO)cc3)cc12` [Example 30, 6-chloro-5-[4-(3-hydroxypropoxy)phenyl]-1H-indole-3-carboxylic acid], the melting point was in the range of 209.3 to 209.6 °C. In addition, the EC50 in data set [1] was 30 nM. In data set [1] (setting [2]), the Emax is 92%.
For `O=C(O)c1n[nH]c2cc(F)c(-c3ccc(C4CCOCC4)cc3)cc12` [Example 130, 6-Fluoro-5-(4-(tetrahydro-2H-pyran-4-yl)phenyl)-1H-indazole-3-carboxylic acid], in that order: 295 °C, 305 nM and 100%.
In the same order, the values of `COc1ccc(-c2cc3c(S(=O)(=O)O)c[nH]c3cc2Cl)cc1` [Example 132, 6-Chloro-5-(4-methoxyphenyl)-1H-indole-3-sulfonic acid] are 240 °C (dec.), 483 nM and 46%.
The compound `COc1nc(N2CCC(O)C2)ccc1-c1cc2c(C(=O)O)c[nH]c2cc1Cl` (stereo not drawn) [Example 161, 6-chloro-5-[6-(3-hydroxypyrrolidin-1-yl)-2-methoxypyridin-3-yl]-1H-indole-3-carboxylic acid] came in with an EC50 in data set [1] of 8.33 nM. Further, the Emax in data set [1] (setting [2]) came to 92.9%.
In the same order, the values of `CC(C)c1ccc(-c2cc3c(C(=O)O)c[nH]c3cc2Cl)cc1` [Example 162, 6-chloro-5-[4-(propan-2-yl)phenyl]-1H-indole-3-carboxylic acid] are 192 nM and 123%.
For the compound `CC(C)(CO)c1ccc(-c2cc3c(C(=O)O)c[nH]c3cc2Cl)cc1F` [Example 163, 6-chloro-5-[3-fluoro-4-(1-hydroxy-2-methylpropan-2-yl)phenyl]-1H-indole-3-carboxylic acid], the EC50 in data set [1] was 12.9 nM and 10.3 nM. The Emax in data set [1] (setting [2]) came out at 110%.
Consider `O=C(O)c1c[nH]c2cc(Cl)c(-c3ccc(C4(CO)CCC4)cc3F)cc12` [Example 164, 6-chloro-5-{2-fluoro-4-[1-(hydroxymethyl)cyclobutyl]phenyl}-1H-indole-3-carboxylic acid], for which the EC50 in data set [1] was 17.5 nM. The Emax in data set [1] (setting [2]) amounted to 142%.
In turn, `O=C(O)c1c[nH]c2cc(F)c(-c3ccc(C4(CO)CCC4)cc3F)cc12` [Example 165, 6-fluoro-5-{2-fluoro-4-[1-(hydroxymethyl)cyclobutyl]phenyl}-1H-indole-3-carboxylic acid] returned an EC50 in data set [1] of 31.9 nM. Moreover, the Emax in data set [1] (setting [2]) stood at 159%.
As for `O=C(O)c1c[nH]c2cc(F)c(-c3ccc(C4CCOCC4)cc3)c(F)c12` [Example 166, 4,6-difluoro-5-[4-(tetrahydro-2H-pyran-4-yl)phenyl]-1H-indole-3-carboxylic acid], the 50% effective concentration (EC50) in data set [1] was 129 nM. Besides, the Emax in data set [1] (setting [2]) is 107%.
On to `O=C(O)c1c[nH]c2cc(F)c(-c3ccc(C4(CO)CCC4)cc3)c(F)c12` [Example 167, 4,6-difluoro-5-{4-[1-(hydroxymethyl)cyclobutyl]phenyl}-1H-indole-3-carboxylic acid], for which it took 9.33 nM to reach a half-maximal effect in data set [1] (EC50). The compound further showed a Maximum in data set [1] (setting [2]) of 143.1%.
`O=C(O)c1c[nH]c2cc(Cl)c(-c3ccc(C4CCCOC4)cc3)cc12` (stereo not drawn) [Example 168, 6-chloro-5-[4-(tetrahydro-2H-pyran-3-yl)phenyl]-1H-indole-3-carboxylic acid] returned a 50% effective concentration (EC50) in data set [1] of 171 nM. The Emax in data set [1] (setting [2]) turned out to be 109%.
In the same order, the values of `COc1nc(N2CCOCC2)ccc1-c1cc2c(C(=O)O)c[nH]c2cc1Cl` [Example 174, 6-chloro-5-[2-methoxy-6-(morpholin-4-yl)pyridin-3-yl]-1H-indole-3-carboxylic acid] are 15.3 nM and 49.4%.
`COc1cc(-c2cc3c(C(=O)NS(C)(=O)=O)c[nH]c3cc2Cl)ccc1C(C)(C)CO` [Example 177, 6-chloro-5-[4-(1-hydroxy-2-methylpropan-2-yl)-3-methoxyphenyl]-N-(methylsulfonyl)-1H-indole-3-carboxamide] returned an EC50 in data set [1] of 62.3 nM. Moreover, the Emax in data set [1] (setting [2]) was 111%.
`O=C(O)c1c[nH]c2cc(Cl)c(-c3ccc(OCCn4cccn4)cc3)cc12` [Example 180, 6-chloro-5-{4-[2-(1H-pyrazol-1-yl)ethoxy]phenyl}-1H-indole-3-carboxylic acid] came in with a 50% effective concentration (EC50) in data set [1] of 11.6 nM. In addition, the Emax in data set [1] (setting [2]) is 76.2%.
For `O=C(O)c1c[nH]c2cc(Cl)c(-c3ccc(OCC4CCO4)cc3)cc12` (stereo not drawn) [Example 182, 6-chloro-5-[4-(oxetan-2-ylmethoxy)phenyl]-1H-indole-3-carboxylic acid], in that order: 19 nM and 80%.
In the same order, the values of `CC(CO)Oc1ccc(-c2cc3c(C(=O)O)c[nH]c3cc2Cl)cc1` (stereo not drawn) [Example 183, 6-chloro-5-{4-[(1-hydroxypropan-2-yl)oxy]phenyl}-1H-indole-3-carboxylic acid] are 28.1 nM and 87.3%.
In the same order, the values of `COc1nc(N2CC[C@H](O)C2)ccc1-c1cc2c(C(=O)O)c[nH]c2cc1Cl` [Example 184, 6-chloro-5-{6-[(3S)-3-hydroxypyrrolidin-1-yl]-2-methoxypyridin-3-yl}-1H-indole-3-carboxylic acid] are 6.2 nM and 84%.
In data set [1], `COc1nc(N2CC[C@@H](O)C2)ccc1-c1cc2c(C(=O)O)c[nH]c2cc1Cl` [Example 185, 6-chloro-5-{6-[(3R)-3-hydroxypyrrolidin-1-yl]-2-methoxypyridin-3-yl}-1H-indole-3-carboxylic acid] gave a half-maximal effective concentration (EC50) of 2.9 nM. Besides, in data set [1] (setting [2]), the Emax was 106%.
In data set [1], `COc1nc(N(C)CCO)ccc1-c1cc2c(C(=O)O)c[nH]c2cc1Cl` [Example 186, 6-chloro-5-{6-[(2-hydroxyethyl)(methyl)amino]-2-methoxypyridin-3-yl}-1H-indole-3-carboxylic acid] came in with an EC50 of 84.5 nM. The Emax in data set [1] (setting [2]) came out at 114%.
In the same order, the values of `COC1CCN(CCCOc2ccc(-c3cc4c(C(=O)O)c[nH]c4cc3Cl)cc2)CC1` [Example 187, 6-chloro-5-{4-[3-(4-methoxypiperidin-1-yl)propoxy]phenyl}-1H-indole-3-carboxylic acid] are 61.4 nM and 105%.
Regarding `CN1CCN(CCCOc2ccc(-c3cc4c(C(=O)O)c[nH]c4cc3Cl)cc2)CC1=O` [Example 188, 6-chloro-5-{4-[3-(4-methyl-3-oxopiperazin-1-yl)propoxy]phenyl}-1H-indole-3-carboxylic acid], a half-maximal effect in data set [1] (EC50) was put at 52.7 nM. Also, the Emax in data set [1] (setting [2]) is 129%.
Take `O=C(O)c1c[nH]c2cc(Cl)c(-c3ccc(OCCCN4CC[C@@H](F)C4)cc3)cc12` [Example 189, 6-chloro-5-(4-{3-[(3R)-3-fluoropyrrolidin-1-yl]propoxy}phenyl)-1H-indole-3-carboxylic acid]: in data set [1], the 50% effective concentration (EC50) came out at 57.7 nM. The Emax in data set [1] (setting [2]) was determined as 112%.
`O=C(O)c1c[nH]c2cc(F)c(-c3ccc(OCCC4CCOC4)cc3)c(F)c12` (stereo not drawn) [Example 190, 4,6-difluoro-5-{4-[2-(tetrahydrofuran-3-yl)ethoxy]phenyl}-1H-indole-3-carboxylic acid]: in data set [1], the concentration giving a half-maximal response (EC50) was 109 nM. Moreover, the Emax in data set [1] (setting [2]) was 108%.
`O=C(O)c1c[nH]c2cc(F)c(-c3ccc(OCCC4CCCO4)cc3)c(F)c12` (stereo not drawn) [Example 191, 4,6-difluoro-5-{4-[2-(tetrahydrofuran-2-yl)ethoxy]phenyl}-1H-indole-3-carboxylic acid]: the 50% effective concentration (EC50) in data set [1] is 121 nM. Further, the Emax in data set [1] (setting [2]) was 140%.
